Measured values reported in US7662819B2, “Pteridinone derivatives for use as stearoyl CoA desaturase inhibitors” (Gilead Palo Alto, Inc., priority 2007, dated 2010).
pIC50: −log10 of the molar value.

Target: T1, stearoyl-CoA desaturase (SCD) (Rattus norvegicus, UniProt P07308)
T1 construct: from tissue; host or cells: liver microsomes of male Sprague Dawley rats, with SCD induced by a carbohydrate-rich diet after fasting/feeding cycles
T1 sequence (P07308 1-358): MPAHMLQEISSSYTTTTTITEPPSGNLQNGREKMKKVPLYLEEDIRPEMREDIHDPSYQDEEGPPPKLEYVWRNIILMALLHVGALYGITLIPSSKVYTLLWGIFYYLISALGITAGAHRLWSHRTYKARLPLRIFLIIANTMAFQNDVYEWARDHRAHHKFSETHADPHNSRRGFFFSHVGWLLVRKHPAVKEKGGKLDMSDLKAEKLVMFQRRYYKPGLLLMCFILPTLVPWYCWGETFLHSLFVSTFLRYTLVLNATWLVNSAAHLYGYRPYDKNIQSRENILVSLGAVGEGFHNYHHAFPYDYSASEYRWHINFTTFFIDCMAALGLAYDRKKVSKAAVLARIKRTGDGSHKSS
Test: SCD assay in rat liver microsomes ([3H]stearoyl CoA desaturation, adapted from Talamo and Bloch)
Type: biochemical
Settings: rat liver microsomes 0.2 mg/ml assay final, 30 min preincubation, 45 min reaction, room temperature
From the text: The identification of compounds of the invention as SCD inhibitors was readily accomplished using the SCD enzyme and microsomal assay procedure described in Talamo and Bloch (1969) Analytical Biochemistry 29:300-304.
The rat liver microsomes were collected according to the procedure described in Ozols (1990) Methods Enzm, 182:225.
Male Spraque Dawley Rats were placed on regimented fasting protocol for one week to stimulate SCD enzymatic activity. 48-hour periods were alternated between feeding and fasting to induce and down-regulate SCD activity with SCD activity being induced via carbohydrate rich diet prior to liver perfusion and collection.
The rats were anesthetized with Isoflurane inhalation anesthetic, the liver perfused with cold phosphate buffered saline (PBS), weighed, and chilled in cold homogenization buffer (250 mM sucrose, 10 mM Tris, 1 mM EDTA, pH 7.6.
The livers were finely minced and placed in homogenization tube. 40 mL of homogenization buffer was added to the homogenization tube and the liver homogenized and centrifuged in a pre-chilled […] for 10 min at 4° C.
Following centrifugation, the supernatant was collected and the pellet removed and discarded. The supernatant was centrifuge at 10,000 G for 35 minutes. Following centrifugation, the supernatant was collect and the pellet discarded. The supernatant was then centrifuged in a pre-chilled 45-Ti rotor at 130,000 G (41,000 RPM) for 90 minutes at 4° C.
The supernatant was then aspirated off and the collected microsomal pellet washed in 25 mL of Glycerol PBS (1×PBS 7.4, 20% Glycerol) and resuspended in 4-5 volumes of Glycerol PBS.
The protein concentration of the microsomal preparation was determined by BCA assay (Pierce) and the microsomes were aliquoted and stored at −80° C.
Biobeads were ground to a smaller size in a mortar and pestle and resuspended in 3.6% TCA. The beads were then filtered through […] mesh.
SCD was determined in the desaturase assay buffer. This assay buffer contained 0.1 M Tris buffer, pH 7.2, 2 mM NADH, 4.8 mM ATP, 0.5 mM CoA, 4.8 mM MgCl2, and 0.1% BSA.
The Procedure for the SCD Assay (Adapted from Talamo and Bloch (1969) Analytical Biochemistry 29:300-304)
1 μl of each compound of Formula I was added to an assay plate by a low volume (0.5-10 μL) multichannel pipette. A DMSO control was also prepared. The microsomes were quickly thawed and added to assay buffer so that a concentration of 0.4 mg/ml was achieved (0.2 mg/ml assay final). 50 μl of the microsome suspension in assay buffer was then added into each well in the compound assay plate, the plate was covered, and the microsomes preincubated with the compounds for 30 minutes on the orbital shaker, 50-75 rpm, at room temperature.
After preincubation, the reaction was initiated by the addition of 50 μl of substrate solution (20 μM Stearoyl CoA, [3H]Stearoyl CoA, 74 nCi) to the preincubated microsomes/compound suspensions in MilliQ (Millipore) H2O. The reaction mixtures were then incubated for 45 minutes on the orbital shaker at 50-75 rpm at room temperature.
The reaction was terminated by the addition of 10 μl of 21% […] (TCA) to the reaction mixture followed incubation on the orbital shaker for 30 minutes at 50-75 rpm at room temperature followed by centrifugation for 5 minutes at 3700 rpm.
50 μl of a 6% Bio-Bead suspension in H2O was added to the reaction mixture and the assay plate was sealed. The Bio-Bead mixture was incubated on the orbital shaker for 1 hour, 100-150 rpm at room temperature, and then the mixture was centrifuged at 2000 g for 5 minutes to pellet the Bio-Beads.
25 μl of the supernatant was harvested from each well and transferred to a detection plate. 100 μl of OptiPhase SuperMix scinitillation cocktail (containing sufficient NaOH to neutralize the TCA) was added and the solutions mixed by vigorous shaking (300-400 rpm) for 5 minutes at room temperature. […]

SMILES | pIC50
COc1ccc(-c2nc3cnc(NCc4ccc(Cl)c(Cl)c4)nc3n(CCNC(=O)c3ccc(F)cc3)c2=O)cc1 [Compound 29, N-[2-(2-{[(3,4-dichlorophenyl)methyl]amino}-6-(4-methoxyphenyl)-7-oxo(8-hydropteridin-8-yl))ethyl](4-fluorophenyl)carboxamide] | 6.37
O=C(NCCn1c(=O)c(-c2cccnc2)nc2cnc(NCc3ccc(Cl)c(Cl)c3)nc21)c1ccsc1 [Compound 37, N-[2-(2-{[(3,4-dichlorophenyl)methyl]amino}-7-oxo-6-(3-pyridyl)(8-hydropteridin-8-yl))ethyl]-3-thienylcarboxamide] | 5.30
COc1ccc(-c2nc3cnc(NCc4ccc(Cl)c(Cl)c4)nc3n(CCNC(=O)c3cccc(F)c3)c2=O)cc1 [Compound 42, N-[2-(2-{[(3,4-dichlorophenyl)methyl]amino}-6-(4-methoxyphenyl)-7-oxo(8-hydropteridin-8-yl))ethyl](3-fluorophenyl)carboxamide] | 5.65
CC(=O)NCCn1c(=O)c(-c2ncccn2)nc2cnc(NCc3ccc(Cl)c(Cl)c3)nc21 [Compound 21, N-[2-(2-{[(3,4-dichlorophenyl)methyl]amino}-7-oxo-6-pyrimidin-2-yl-8-hydropteridin-8-yl)ethyl]acetamide] | 5.36
COc1ccc(-c2nc3cnc(NCc4ccc(F)cc4)nc3n(CCNC(C)=O)c2=O)cc1 [Compound 10, N-[2-(2-{[(4-fluorophenyl)methyl]amino}-6-(4-methoxyphenyl)-7-oxo-8-hydropteridin-8-yl)ethyl]acetamide] | 5.89
COc1ccc(-c2nc3cnc(NCc4ccc(Cl)c(Cl)c4)nc3n(CCNC(=N)N)c2=O)cc1 [Compound 16, amino[2-(2-{[(3,4-dichlorophenyl)methyl]amino}-6-(4-methoxyphenyl)-7-oxo(8-hydropteridin-8-yl))ethyl]carboxamidine] | 4.96
CC(=O)NCCn1c(=O)c(-c2ccc(Cl)cc2)nc2cnc(NCc3ccc(Cl)c(Cl)c3)nc21 [Compound 32, N-[2-(2-{[(3,4-dichlorophenyl)methyl]amino}-6-(4-chlorophenyl)-7-oxo-8-hydropteridin-8-yl)ethyl]acetamide] | 5.72
CC(=O)NCCn1c(=O)c(-c2cccs2)nc2cnc(NCc3ccc(Cl)c(Cl)c3)nc21 [Compound 14, N-[2-(2-{[(3,4-dichlorophenyl)methyl]amino}-7-oxo-6-(2-thienyl)-8-hydropteridin-8-yl)ethyl]acetamide] | 5.70
COc1ccc(-c2nc3cnc(NCc4ccc(Cl)c(Cl)c4)nc3n(CCNC(=O)c3cccc(C)c3)c2=O)cc1 [Compound 30, N-[2-(2-{[(3,4-dichlorophenyl)methyl]amino}-6-(4-methoxyphenyl)-7-oxo(8-hydropteridin-8-yl))ethyl](3-methylphenyl)carboxamide] | 5.49
CC(=O)NCCn1c(=O)cnc2cnc(NCc3ccc(Cl)c(Cl)c3)nc21 [Compound 17, N-[2-(2-{[(3,4-dichlorophenyl)methyl]amino}-7-oxo-8-hydropteridin-8-yl)ethyl]acetamide] | 6.47
CC(=O)NCCn1c(=O)c(-c2cccnc2)nc2cnc(NCc3cccc(Cl)c3)nc21 [Compound 27, N-[2-(2-{[(3-chlorophenyl)methyl]amino}-7-oxo-6-(3-pyridyl)-8-hydropteridin-8-yl)ethyl]acetamide] | 5.04
COc1ccc(-c2nc3cnc(NCc4ccc(Cl)c(Cl)c4)nc3n(CCNS(C)(=O)=O)c2=O)cc1 [Compound 2, 2-{[(3,4-dichlorophenyl)methyl]amino}-6-(4-methoxyphenyl)-8-{2-[(methylsulfonyl)amino]ethyl}-8-hydropteridin-7-one] | 5.55
COc1ccc(-c2nc3cnc(NCc4cccc(Cl)c4)nc3n(CCNC(C)=O)c2=O)cc1 [Compound 24, N-[2-(2-{[(3-chlorophenyl)methyl]amino}-6-(4-methoxyphenyl)-7-oxo-8-hydropteridin-8-yl)ethyl]acetamide] | 5.89
COCC(=O)NCCn1c(=O)c(-c2ccc(OC)cc2)nc2cnc(NCc3ccc(Cl)c(Cl)c3)nc21 [Compound 8, N-[2-(2-{[(3,4-dichlorophenyl)methyl]amino}-6-(4-methoxyphenyl)-7-oxo(8-hydropteridin-8-yl))ethyl]-2-methoxyacetamide] | 5.74
COc1ccc(-c2nc3cnc(NCc4ccc(Cl)c(Cl)c4)nc3n(CCNC(C)=O)c2=O)cc1 [Compound 1, N-[2-(2-{[(3,4-dichlorophenyl)methyl]amino}-6-(4-methoxyphenyl)-7-oxo-8-hydropteridin-8-yl)ethyl]acetamide] | 6.80
CCC(=O)NCCn1c(=O)c(-c2ccc(OC)cc2)nc2cnc(NCc3ccc(Cl)c(Cl)c3)nc21 [Compound 6, N-[2-(2-{[(3,4-dichlorophenyl)methyl]amino}-6-(4-methoxyphenyl)-7-oxo-8-hydropteridin-8-yl)ethyl]propanamide] | 5.55
CCCC(=O)NCCn1c(=O)c(-c2ccc(OC)cc2)nc2cnc(NCc3ccc(Cl)c(Cl)c3)nc21 [Compound 5, N-[2-(2-{[(3,4-dichlorophenyl)methyl]amino}-6-(4-methoxyphenyl)-7-oxo-8-hydropteridin-8-yl)ethyl]butanamide] | 4.74
O=c1c(-c2cccnc2)nc2cnc(NCc3ccc(Cl)c(Cl)c3)nc2n1CCn1cncn1 [Compound 15, 2-{[(3,4-dichlorophenyl)methyl]amino}-6-(3-pyridyl)-8-(2-(1,2,4-triazolyl)ethyl)-8-hydropteridin-7-one] | 5.24
